The values below come from patent US20100113465A1, “7-AZASPIRO[3.5]NONANE-7-CARBOXAMIDE COMPOUNDS” (Pfizer Inc., priority 2008, published 2010).

One experiment addresses T1, human FAAH (Homo sapiens, UniProt O00519).
T1 construct: made in house; host or cells: E. coli
T1 sequence (O00519 1-579): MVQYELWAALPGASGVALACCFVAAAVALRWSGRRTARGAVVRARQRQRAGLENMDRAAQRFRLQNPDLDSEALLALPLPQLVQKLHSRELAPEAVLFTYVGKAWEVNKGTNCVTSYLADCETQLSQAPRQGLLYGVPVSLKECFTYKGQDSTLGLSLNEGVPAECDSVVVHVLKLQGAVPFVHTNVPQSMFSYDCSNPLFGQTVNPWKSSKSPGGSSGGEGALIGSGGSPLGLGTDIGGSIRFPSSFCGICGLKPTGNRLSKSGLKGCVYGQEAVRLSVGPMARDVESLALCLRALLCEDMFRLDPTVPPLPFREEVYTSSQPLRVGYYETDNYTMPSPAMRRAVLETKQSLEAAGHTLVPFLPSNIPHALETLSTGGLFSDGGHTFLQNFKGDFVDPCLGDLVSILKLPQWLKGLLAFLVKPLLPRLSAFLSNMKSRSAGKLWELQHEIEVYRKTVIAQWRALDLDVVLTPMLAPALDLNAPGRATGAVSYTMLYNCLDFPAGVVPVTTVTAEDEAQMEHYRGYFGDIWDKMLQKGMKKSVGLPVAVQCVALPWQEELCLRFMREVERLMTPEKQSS
Description: FAAH assay, human FAAH enzyme inhibition (kinact/Ki). In kind it is biochemical. Conditions: oleamide substrate 50 μM, 30° C., read-out: hFAAH kinact/Ki. In outline:
(§1)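 Purified E. coli-expressed FAAH (1-4 nM) with oleamide at Km (50 μM), coupled GDH/NADH read at 340 nm over 90 min, 30° C, pH 7.4, 7.5% DMSO and EtOH. kobs from mono-exponential fits; kinact/Ki from kobs vs inhibitor slope, multiplied by two.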

A further experiment concerns the target T2, rat FAAH (Rattus norvegicus, UniProt P97612).
T2 construct: made in house; host or cells: E. coli
T2 sequence (P97612 1-579): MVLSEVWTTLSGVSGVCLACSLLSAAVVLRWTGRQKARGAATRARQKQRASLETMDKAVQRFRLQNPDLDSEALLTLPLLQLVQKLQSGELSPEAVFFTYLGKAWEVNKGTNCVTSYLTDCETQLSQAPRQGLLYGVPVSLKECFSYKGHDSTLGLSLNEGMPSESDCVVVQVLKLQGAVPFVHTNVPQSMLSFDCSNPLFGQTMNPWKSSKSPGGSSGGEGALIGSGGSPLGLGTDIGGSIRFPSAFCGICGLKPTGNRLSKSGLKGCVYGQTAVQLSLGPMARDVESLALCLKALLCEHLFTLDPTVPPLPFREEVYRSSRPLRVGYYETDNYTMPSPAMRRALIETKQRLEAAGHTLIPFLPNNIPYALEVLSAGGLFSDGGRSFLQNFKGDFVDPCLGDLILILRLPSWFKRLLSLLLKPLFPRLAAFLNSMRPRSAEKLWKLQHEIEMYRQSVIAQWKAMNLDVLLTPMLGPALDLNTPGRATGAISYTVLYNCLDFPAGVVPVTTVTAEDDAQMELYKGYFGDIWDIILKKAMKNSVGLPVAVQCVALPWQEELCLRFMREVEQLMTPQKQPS
Nature of the experiment: FAAH assay, rat FAAH enzyme inhibition (kinact/Ki). In kind it is biochemical. The note with it: oleamide substrate 50 μM, 30° C., read-out: rFAAH kinact/Ki. In outline: as §1

Experiment [1] concerns Male Sprague-Dawley Rats. Nature of the experiment: In vivo Complete Freund's Adjuvant (CFA) efficacy assay. More on the design: species or system rat; key: (+) indicates the test compound was determined to be efficacious at 3 mpk, oral dosing; (−) indicates the test compound was determined to not be efficacious at 3 mpk, oral dosing. The note with it: 10 mpk, intraperitoneal dosing; inhibition of allodynia vs vehicle, p<0.05.

Experiment [2] deals with Male Sprague-Dawley Rats. The description is as above. More on the design: species or system rat; key: (+) indicates the test compound was determined to be efficacious at 3 mpk, oral dosing; (−) indicates the test compound was determined to not be efficacious at 3 mpk, oral dosing. The note with it: 3 mpk, oral dosing; inhibition of allodynia (PWT) four hours postdose vs vehicle, p<0.05. Here is the method:
For additional information on the CFA efficacy assay, see Jayamanne et al., Brit. J. Pharmacol. 2006, 147, 281-288. Experiments were performed on adult Male Sprague-Dawley Rats (200 g-250 g). Inflammation was induced in the left hindpaw of the rat by an intra-plantar injection of 150 uL Complete Freund's Adjuvant (CFA) (SIGMA F5881). The CFA injection immediately induces local inflammation, paw swelling, and pain that persists for at least two weeks post-injection. Baseline paw withdrawal threshold (PWT) was measured to determine the percent inhibition of allodynia using a set of Von Frey Hairs on day 4 post injection as illustrated by the Dixon Up and Down Method (W. J. Dixon, Ann. Rev. Pharmacol. Toxicol. 1980, 20:441-462). […] Test compound was administered at a concentration of 3 mg/kg (mpk) orally with the dosing vehicle 5% N,N′-Dimethylacetamide (SIGMA D137510) and 95% (40% 2-hydroxypropyl-beta-cyclodextrin in water) (SIGMA H107). Following Dose administration PWT threshold was evaluated again at four hours postdose. The Sprague-Dawley rats used in this assay were purchased from Harlan, 8520 Allison Pointe Blvd., Indianapolis, Ind., 46250, U.S.A. Sprague-Dawley rats are an outbred breed of albino rats first produced by the Sprague Dawley farms in Madison, Wis., U.S.A.
Percent Inhibition of Allodynia was determined by the formula: […]
ΔPWT measurements were averaged for each treatment group and statistical comparisons between groups were made using ANOVA and Dunnett's two-tailed test. […]

Marks after values point to notes of the source that are not given here.

Regarding `O=C(Nc1cccnn1)N1CCC2(CC1)CC(c1cccc(Oc3ccc(C(F)(F)F)cn3)c1)C2` [Example 1, N-pyridazin-3-yl-2-(3-{[5-(trifluoromethyl)pyridin-2-yl]oxy}phenyl)-7-azaspiro[3.5]nonane-7-carboxamide], the kinact/KI on human FAAH was 1570 M⁻¹ s⁻¹; at rat FAAH, 647 M⁻¹ s⁻¹. Moreover, the “CFA Efficacy” value with Male Sprague-Dawley Rats [1] was “(−)^c”.

For `Cc1noc(NC(=O)N2CCC3(CC2)CC(c2cccc4c2OC(F)(F)O4)C3)c1C` [Example 28, 2-(2,2-difluoro-1,3-benzodioxol-4-yl)-N-(3,4-dimethylisoxazol-5-yl)-7-azaspiro[3.5]nonane-7-carboxamide], the figures for the kinact/KI at human FAAH and at rat FAAH were 2220 M⁻¹ s⁻¹ and 1060 M⁻¹ s⁻¹, respectively. Also, in the experiment on Male Sprague-Dawley Rats [2], the “CFA Efficacy” value is recorded as “(+)”.

In the case of `Cc1noc(NC(=O)N2CCC3(CC2)CC(c2cccc(Cl)c2F)C3)c1C` [Example 29, 2-(3-chloro-2-fluorophenyl)-N-(3,4-dimethylisoxazol-5-yl)-7-azaspiro[3.5]nonane-7-carboxamide], the kinact/KI on human FAAH was determined as 3840 M⁻¹ s⁻¹; at rat FAAH it was 2470 M⁻¹ s⁻¹. For the same compound, the “CFA Efficacy” value with Male Sprague-Dawley Rats [2] is “(+)”.

On to `Cc1noc(NC(=O)N2CCC3(CC2)CC(c2cccc(C(F)(F)F)c2F)C3)c1C` [Example 30, N-(3,4-dimethylisoxazol-5-yl)-2-[2-fluoro-3-(trifluoromethyl)phenyl]-7-azaspiro[3.5]nonane-7-carboxamide], for which the kinact/KI on human FAAH came out at 3240 M⁻¹ s⁻¹; at rat FAAH, 2340 M⁻¹ s⁻¹. Further, the “CFA Efficacy” value in the experiment with Male Sprague-Dawley Rats [2] is given as “(+)”.

For `Cc1noc(NC(=O)N2CCC3(CC2)CC(F)(c2cccc(Cl)c2)C3)c1C` [Example 32, 2-(3-chlorophenyl)-N-(3,4-dimethylisoxazol-5-yl)-2-fluoro-7-azaspiro[3.5]nonane-7-carboxamide], the results for the kinact/KI on human FAAH and on rat FAAH were 2830 M⁻¹ s⁻¹ and 1320 M⁻¹ s⁻¹, respectively. For the same compound, the “CFA Efficacy” value with Male Sprague-Dawley Rats [2] was “(+)”.

For `Cc1noc(NC(=O)N2CCC3(CC2)CC(c2noc(-c4ccc(C(F)(F)F)cc4)n2)C3)c1C` [Example 33, N-(3,4-dimethylisoxazol-5-yl)-2-{5-[4-(trifluoromethyl)phenyl]-1,2,4-oxadiazol-3-yl}-7-azaspiro[3.5]nonane-7-carboxamide], the results for the kinact/KI at human FAAH and on rat FAAH were 1600 M⁻¹ s⁻¹ and 636 M⁻¹ s⁻¹, respectively. In addition, the “CFA Efficacy” value in the experiment with Male Sprague-Dawley Rats [2] is “(+)”.

As to `CCc1noc(NC(=O)N2CCC3(CC2)CC(c2cccc(OC(F)(F)F)c2)C3)c1C` [Example 34, N-(3-ethyl-4-methylisoxazol-5-yl)-2-[3-(trifluoromethoxy)phenyl]-7-azaspiro[3.5]nonane-7-carboxamide], the values for the kinact/KI on human FAAH and on rat FAAH were 1650 M⁻¹ s⁻¹ and 1660 M⁻¹ s⁻¹, respectively. The “CFA Efficacy” value with Male Sprague-Dawley Rats [2] was “(+)”.

With `Cc1noc(NC(=O)N2CCC3(CC2)CC(c2csc(-c4cccc(C(F)(F)F)c4)n2)C3)c1C` [Example 36, N-(3,4-dimethylisoxazol-5-yl)-2-{2-[3-(trifluoromethyl)phenyl]-1,3-thiazol-4-yl}-7-azaspiro[3.5]nonane-7-carboxamide], the kinact/KI at human FAAH amounted to 2030 M⁻¹ s⁻¹; on rat FAAH, 1160 M⁻¹ s⁻¹. For the same compound, the “CFA Efficacy” value in the experiment on Male Sprague-Dawley Rats [2] was “(+)”.

`Cn1nnnc1NC(=O)N1CCC2(CC1)CC(c1cccc(OC(F)(F)F)c1)C2` [Example 45, N-(1-methyl-1H-tetrazol-5-yl)-2-[3-(trifluoromethoxy)phenyl]-7-azaspiro[3.5]nonane-7-carboxamide]: the results for the kinact/KI on human FAAH and on rat FAAH were 13200 M⁻¹ s⁻¹ and 4570 M⁻¹ s⁻¹, respectively. In the experiment with Male Sprague-Dawley Rats [2], the “CFA Efficacy” value is reported as “(+)”.

Take `Cn1nnnc1NC(=O)N1CCC2(CC1)CC(c1cccc(Cl)c1F)C2` [Example 46, 2-(3-chloro-2-fluorophenyl)-N-(1-methyl-1H-tetrazol-5-yl)-7-azaspiro[3.5]nonane-7-carboxamide]: the kinact/KI is 14100 M⁻¹ s⁻¹ at human FAAH and 3410 M⁻¹ s⁻¹ at rat FAAH. Further, the “CFA Efficacy” value with Male Sprague-Dawley Rats [2] is “(+)”.

In the case of `Cn1nnnc1NC(=O)N1CCC2(CC1)CC(c1cccc(C(F)(F)F)c1F)C2` [Example 47, 2-[2-fluoro-3-(trifluoromethyl)phenyl]-N-(1-methyl-1H-tetrazol-5-yl)-7-azaspiro[3.5]nonane-7-carboxamide], the kinact/KI at human FAAH turned out to be 15400 M⁻¹ s⁻¹; at rat FAAH, 3330 M⁻¹ s⁻¹. Besides, the “CFA Efficacy” value in the experiment with Male Sprague-Dawley Rats [2] is listed as “(+)”.

As to `Cn1nnnc1NC(=O)N1CCC2(CC1)CC(c1ccc(F)c(Cl)c1)C2` [Example 48, 2-(3-chloro-4-fluorophenyl)-N-(1-methyl-1H-tetrazol-5-yl)-7-azaspiro[3.5]nonane-7-carboxamide], the values for the kinact/KI on human FAAH and at rat FAAH were 16300 M⁻¹ s⁻¹ and 5940 M⁻¹ s⁻¹, respectively. The “CFA Efficacy” value with Male Sprague-Dawley Rats [2] is reported as “(+)”.

`Cn1nnnc1NC(=O)N1CCC2(CC1)CC(c1noc(-c3ccc(C(F)(F)F)cc3)n1)C2` [Example 49, N-(1-methyl-1H-tetrazol-5-yl)-2-{5-[4-(trifluoromethyl)phenyl]-1,2,4-oxadiazol-3-yl}-7-azaspiro[3.5]nonane-7-carboxamide]: the kinact/KI stood at 5240 M⁻¹ s⁻¹ at human FAAH and 552 M⁻¹ s⁻¹ on rat FAAH. For the same compound, the “CFA Efficacy” value in the experiment on Male Sprague-Dawley Rats [2] is “(+)”.

Consider `Cn1nnnc1NC(=O)N1CCC2(CC1)CC(c1noc(-c3ccc(OC(F)(F)F)cc3)n1)C2` [Example 50, N-(1-methyl-1H-tetrazol-5-yl)-2-{5-[4-(trifluoromethoxy)phenyl]-1,2,4-oxadiazol-3-yl}-7-azaspiro[3.5]nonane-7-carboxamide], for which the results for the kinact/KI at human FAAH and on rat FAAH were 16700 M⁻¹ s⁻¹ and 3530 M⁻¹ s⁻¹, respectively. For the same compound, in the experiment with Male Sprague-Dawley Rats [2], the “CFA Efficacy” value is “(+)”.

Consider `Cn1nnnc1NC(=O)N1CCC2(CC1)CC(F)(c1cccc(OC(F)(F)F)c1)C2` [Example 53, 2-fluoro-N-(1-methyl-1H-tetrazol-5-yl)-2-[3-(trifluoromethoxy)phenyl]-7-azaspiro[3.5]nonane-7-carboxamide], for which the kinact/KI is 13900 M⁻¹ s⁻¹ on human FAAH and 1920 M⁻¹ s⁻¹ at rat FAAH. Besides, the “CFA Efficacy” value with Male Sprague-Dawley Rats [2] is reported as “(+)”.

With `Cn1nnnc1NC(=O)N1CCC2(CC1)CC(c1cccc(Oc3ccc(C(F)(F)F)cn3)c1)C2` [Example 54, N-(1-methyl-1H-tetrazol-5-yl)-2-(3-{[5-(trifluoromethyl)pyridin-2-yl]oxy}phenyl)-7-azaspiro[3.5]nonane-7-carboxamide], the results for the kinact/KI at human FAAH and at rat FAAH were 21700 M⁻¹ s⁻¹ and 26800 M⁻¹ s⁻¹, respectively. In the experiment with Male Sprague-Dawley Rats [2], the “CFA Efficacy” value was “(+)”.
